From paper PMC13252604, “First Generation Proteolysis Targeting Chimeras (PROTACs) for the Treatment of Progeria” (Advanced Science, 2026) come the findings set out here.

The assay concerns Lmna^G609G/G609G fibroblasts. The assay can be described thus: Senescence-associated β-galactosidase activity in mouse progeroid cells. Conditions: 5 µM. Format: cell-based. As to the method: Confocal fluorescence microscopy images are representative of 2 independent experiments. […] Representative cropped immunoblots are shown. […] MW, molecular weight (in kDa) markers. (C) PROTAC 2 decreases senescence‐associated β‐galactosidase (SA‐βgal) activity, interleukin (IL) 1α and p16 senescent markers. Lmna^G609G/G609G (G609G) or Lmna^+/+ (WT) fibroblasts were incubated with vehicle or compound 2 (5 µM). […] Data were analysed using one‐way ANOVA followed by Dunnett's post–hoc test. ^*, p < 0.05; ^**, p < 0.01, ^***, p < 0.001, ^****, p < 0.0001 vs G609G cells. […]
TBS-T and proteins were visualized by quimioluminiscence (GE Healthcare […]
SA β-galactosidase activity was determined by the FDG method. […]
ferrocyanide, 0.6 mL 5 M NaCl, 0.2 mL 0.2 M MgCl2, (all from Sigma Aldrich) and 6.2 mL of deionized water in a total volume of 20 mL] in the dark in a humidified incubator at 37 °C for 24 h without CO2 supply. Then, an equal volume of the supernatant of each well was transferred to a new 96-well plate for fluorescence measurement. The resultant production of fluorescein was measured using a FluoStar Optima instrument (BMG Labtech) with an excitation of 485 nm and emission at 535 nm. […]
Total RNA was extracted by RNAeasy Mini Kit (Qiagen) according to the manufacturer instructions and subsequently quantified using the NanoPhotometer N60 (Implen). […]

Consider `CC1(C)Oc2cc3oc(=O)ccc3cc2C[C@@H]1OC(=O)CCCCCNc1cccc2c1C(=O)N(C1CCC(=O)NC1=O)C2=O` (stereo partly shown) [compound 2], for which the “senescence‐associated β‐galactosidase (SA‐βgal) activity” value is “significantly reduced”.
